Test results published in patent US20240277899A1, “PRODUCTION METHOD OF MYOCARDIAL CELL LAYER, MYOCARDIAL CELL LAYER, AND USE THEREOF” (FUJIFILM Corporation, priority 2021, published 2024).
Where two headings read alike, the source gives them in different places.

Tested on: myocardial cell layer of myocardial cell C (iCell Cardiomyocytes^2, purity 80%)
Experiment: Drug screening: electrical signal of spontaneous beating of the myocardial cell layer measured by MEA (QT interval, beat rate, cardiotoxicity)
Details: for myocardial beat rate on addition of the drug: MEA 5 minutes after adding drug, Day 17; for myocardial beat rate reaction, TW compared with Control: TW layer versus Control layer
Protocol: iCell (registered trademark) Cardiomyocytes^2 was thawed according to “iCell Cardiomyocytes^2 User's Guide” to prepare myocardial cells C (purity of the myocardial cells 100%). In addition, myocardium-derived fibroblasts (NHCF-V human cardiac fibroblasts, Lonza, CC-2904) were added to the myocardial cells C to prepare myocardial cells with a purity of 25%, 50%, and 75%, respectively. Each of the prepared myocardial cells was dispersed at 1×10^6 cells/cm^2 and scattered on the seeding surface of the cells of the culture container 3 prepared in Example 1 to form a myocardial cell layer. The cells were cultured in the same manner as in Example 2, a beating frequency was measured, and stability of the TW was evaluated.
Using the myocardial cell C (the myocardial cell with a purity of 80%, which was obtained in the same manner as in Example 4) and the above-described culture container 3 (biodegradable fiber material), a myocardial cell layer was formed in the same manner as in Example 4. […] In addition, the beating frequency was measured up to Day 14 (TW). As a control, the beating frequency was measured in the same manner for those (Control) in which the TW was stopped by exchanging the culture medium with a culture medium at 4° C. on Day 2.
A culture container 3 (biodegradable fiber material) was created in the same manner as in Example 10. In addition, a culture container 3 (PC) was created in the same manner as for the culture container 3 (biodegradable fiber material), using polycarbonate (PC) porous membrane (Thermo Fisher Scientific, Inc., Nunc™ Polycarbonate Cell Culture Cell Inserts in Multi-Well Plates 140644) as a scaffold material. A myocardial cell layer was formed in the same manner as in Example 2, using the myocardial cells B, the culture container 3 (biodegradable fiber material), and the culture container 3 (PC). […] After Day 14, the electrical signal of myocardial spontaneous beating was measured by MEA by stopping the TW by exchanging the culture medium with a culture medium at 4° C. Specifically, data of extracellular Field Potentials (FPs) was recorded on a multielectrode array (MEA) system (USB-ME64-System, Multi Channel Systems, Germany).
A culture container 3 (biodegradable fiber material) was created in the same manner as in Example 10. Using the myocardial cell C (the myocardial cell with a purity of 80%, which was obtained in the same manner as in Example 4) and the above-described culture container 3 (biodegradable fiber material), a myocardial cell layer was formed in the same manner as in Example 4. Those in which the generated TW was stably maintained up to Day 14 (TW), and those in which TW was stopped by exchanging the culture medium with a culture medium at 4° C. on Day 2 (Control), that is, a total of two kinds were produced.

SMILES	myocardial beat rate on addition of the drug	myocardial beat rate reaction, TW compared with Control (MEA 5 minutes after drug)	QT interval as the concentration increased	QT interval extension, TW compared with Control	QT interval extension, TW compared with Control (TW layer (TW maintained up to Day 14) versus Control layer (TW stopped on Day 2), MEA 5 minutes after drug)
CC(C)NCC(O)c1ccc(O)c(O)c1 (centres unmarked) [isoproterenol]	increased	more sensitive in reaction to isoproterenol as compared with Control	–	–	–
CC(=O)Oc1ccccc1C(=O)O [aspirin]	–	almost the same	decreased	almost the same	–
COc1ccc(CCN(C)CCCC(C#N)(c2ccc(OC)c(OC)c2)C(C)C)cc1OC (centres unmarked) [verapamil]	increased	more sensitive in reaction to verapamil as compared with Control	–	–	–
Cc1cccc(C)c1OCC(C)N (centres unmarked) [mexiletine]	–	–	–	–	smaller than Control
